Test results as given in PMC8739956 (Frontiers in Oncology, 2021).
“Also recorded” adds a separate entry of the source. Read-outs that look alike come from different tables or passages of the source. Blank lines part the entries; values can stand above or below the molecule they belong to.

Columns and labels:
[1] = LC-MS/MS quantification of zanubrutinib in time-matched plasma and CSF samples of patients; type: in vivo, human; conditions: for concentration at 12 h: read-out: Trough CSF concentration
Procedure: Zanubrutinib is absorbed rapidly with a median time to maximum concentration of 2 h. Blood and CSF samples were collected at 2 or 3 h after the oral administration of zanubrutinib at 160 mg. Zanubrutinib administration was performed for more than 7 d. Additional plasma and CSF specimens for trough concentration testing were collected just before zanubrutinib administration (i.e., 12 h after the last zanubrutinib dose). Biological samples were stored at −20°C for a maximum of one month before analysis.
Zanubrutinib in CSF and sodium heparin plasma samples was quantified by LC-MS/MS. Zanubrutinib standard was obtained from Beigene (Beijing, China). Methanol, methanoic acid, and acetonitrile (high-performance liquid chromatography gradient grade) were purchased from Fisher Scientific, USA. Ultrapure water was obtained using a Milli-Q purification system (Millipore, MA, USA). Control plasma and CSF samples for standards and quality control were obtained from patients treated in the department of hematology of PUMCH. The detailed LC-MS/MS procedure is described in the Supplementary Material .
Zanubrutinib solutions were prepared at a concentration of 1 mg/ml in methanol and further diluted with methanol to obtain working solutions at concentrations of 100–1,000,000 pg/ml. Biological samples (50 µl) were mixed with 10 µl of methanol and 100 µl of acetonitrile. The mixed samples were centrifuged at 2,500 rpm for 3 min at room temperature and at 17,500 rpm for 10 min at 2°C–8°C. The supernatant (120 μl) was then injected into the chromatography system at room temperature.
The analytes were analyzed by reverse-phase chromatography using an UPLC XevoTQ-XS system (Waters Corp., Milford, MA, USA) equipped with an ACQUUITY UPLC®BEH C18 column (2.1×50 mm, 1.7 μm; Waters Corp.). The mobile phase consisted of 0.1% formic acid in acetonitrile and ultrapure water. A mass spectrometer was used in positive mode with an electrospray ionization source. Multiple reaction monitoring mode was used to detect analytes and internal standards.
To create a stock solution of zanubrutinib with a concentration of 1 mg/ml, zanubrutinib (4.55 mg) was added to methanol (4.55 ml). The standard working solution and quality control standard solution of zanubrutinib were then obtained by diluting the stock solution to 1 μg/ml with methanol. To establish the standard curve, the blank control samples of plasma and CSF were added into 50-μl EP tubes followed by the addition of 10 μl standard working solution with different concentrations (see the table below).
The concentrations of analytes in CSF and plasma samples were obtained from the calibration curve constructed by plotting the peak area ratio of each analyte to the internal standard against the concentration. The analyte concentrations in the samples were calculated by linear regression.

[2] = test system: diffuse large B-cell lymphoma (DLBCL); experiment: Clinical response of DLBCL patients (Lugano 2014 / 2005 IELSG criteria); type: in vivo, human; conditions: for MRI lesion in the cerebellum: case 5, zanubrutinib monotherapy
Procedure: Patients with treatment-naive and relapsed/refractory DLBCL were enrolled in this study. […] The exclusion criteria were as follows: severe disease complications or serious comorbidities; active infection; uncontrolled bleeding events; and pregnancy or lactation in women.
The dose of zanubrutinib was fixed at 160 mg twice per day in all patients. Treatment duration and the combined drugs/regimens were decided by the clinicians.
Four regimens were evaluated in this study: Regimen 1, zanubrutinib + rituximab in primary vitreoretinal lymphoma (PVRL) (zanubrutinib at 160 mg twice per day until disease progression or intolerance and rituximab at 375 mg/m^2 every 21 days); Regimen 2, zanubrutinib combined with high-dose methotrexate with or without cytarabine (HD-MTX regimen/MA regimen) in CNSL (methotrexate at 3.5–5.0 g/m^2 d1 and cytarabine at […] every 12 h on d2 and d3, every 21 days per cycle); Regimen 3, zanubrutinib combined with dexamethasone, ifosfamide, carboplatin, and etoposide (DICE) or dexamethasone, cytarabine, and cis-platinum (DHAP) in relapsed and refractory patients every 21 days per cycle as prescribed for the salvage chemotherapy of autologous stem cell transplantation (ASCT); and Regimen 4, zanubrutinib combined with rituximab, cyclophosphamide, epirubicin, vindesine, and prednisone (R-CHOP) for eight cycles as an initial treatment in IVLBCL.
The clinical response was assessed based on the Lugano 2014 Criteria for DBLCL and 2005 IELSG Criteria for PCNSL ([24], [25]). AEs were recorded and assessed according to the Common Terminology Criteria for Adverse Events (CTCAE) v4.0.
Continuous variables were expressed as median and range and compared by Mann–Whitney U-test. Categorical variables were reported as percentages and compared by chi-squared test. The duration of response (DOR) was determined using the Kaplan–Meier method. Statistical analyses were performed with SPSS 25.0 (IBM, NY, USA) or Prism 7.0 (GraphPad, CA, USA). P < 0.05 was considered statistically significant.

IL-10 = experiment: CSF IL-10 concentration during treatment; type: in vivo, human; conditions: case 6, zanubrutinib monotherapy for 7 d
TMD8 = conditions: ABC DLBCL lines in vitro (TMD8); cited from earlier work
[3] = cited from earlier work
[4] = parameters: method as in package insert; conditions: ref package insert, cited from earlier work
DLBCL [5] = conditions: cited from earlier work
[6] = parameters: method as in PMID 32583848; conditions: cited from earlier work; for Mean CSF (trough concentration): PCNSL patients
DLBCL [7] = conditions: 14-d ibrutinib therapy before TEDDI-R; cited from earlier work
[8] = cited from earlier work; remark: listed apart in the source
CNSL = conditions: high risk group, prophylaxis; cited from earlier work
[9] = relapsed non-GCB DLBCL, phase 2, 41 patients

Mean CSF ([1]; 160mg bid): 2.94 ng/mL
Mean Plasma ([1]; 160mg bid): 143.2 ng/mL
Samples with peak CSF concentration above the IC50 values ([1]; 22/23 samples): 95.7%
Corrected CSF/plasma ratio ([1]; corrected for 94% protein binding, entire series, 23 samples): 42.7 ± 27.7%
Corrected CSF/plasma ratio ([1]; corrected for 94% protein binding, entire series, 23 samples, listed as zanubrutinib): 42.7% ± 27.7%
Mean plasma concentration ([1]; entire series, 23 samples, peak time point 2-3 h after 160 mg oral, 160 mg twice per day): 143.1906 ± 93.3027 ng/mL
concentration at 2 h ([1]; human, CSF, oral, 160 mg, 2 h after administration, 10 samples, read-out: Mean CSF concentration): 4.12 ± 2.86 ng/mL
concentration at 3 h ([1]; human, CSF, oral, 160 mg, 3 h after administration, 13 samples, read-out: Mean CSF concentration): 2.43 ± 2.03 ng/mL
concentration at 12 h ([1]; human, CSF, oral, 160 mg, case 1, 12 h after the last dose): 0.267 ng/mL
concentration at 12 h ([1]; human, CSF, oral, 160 mg, case 3, 12 h after the last dose): 5.02 ng/mL
Kp at 2 h ([1]; human, CSF/plasma, oral, 160 mg, 2 h after administration, 10 samples, read-out: Corrected CSF/plasma ratio): 0.412 ± 0.325
Kp at 3 h ([1]; human, CSF/plasma, oral, 160 mg, 3 h after administration, 13 samples, read-out: Corrected CSF/plasma ratio): 0.433 ± 0.265
Kp ([1]; human, CSF/plasma, oral, 160 mg, corrected for 94% protein binding, entire series, 23 samples, read-out: Corrected CSF/plasma ratio): ~0.4
Kp ([1]; human, CSF/plasma, oral, 160 mg, corrected for 94% protein binding, entire series, read-out: Corrected CSF/plasma ratio, range): 0.086 to 1.06
Kp ([1]; human, CSF/plasma, oral, 160 mg, not corrected for protein binding, read-out: CSF/plasma ratio): ~0.02
Kp ([1]; human, CSF/plasma, oral, 160 mg, not corrected for protein binding, read-out: CSF/plasma ratio, range): 0.0061 to 0.0583
Kp ([1]; human, CSF/plasma, oral, 160 mg, six patients with repeated samples in different cycles, read-out: CSF/plasma ratio, range among patients): 0.105 to 0.781
concentration at 2 h ([1]; human, plasma, oral, 160 mg, 2 h after administration, 10 samples, read-out: Mean plasma concentration): 183 ± 91.1 ng/mL
concentration at 3 h ([1]; human, plasma, oral, 160 mg, 3 h after administration, 13 samples, read-out: Mean plasma concentration): 126 ± 91.6 ng/mL
Structure (SMILES): C=CC(=O)N1CCC([C@@H]2CCNc3c(C(N)=O)c(-c4ccc(Oc5ccccc5)cc4)nn32)CC1 [Zanubrutinib]
MRI lesion in the cerebellum [2]: shrank and disappeared within three weeks
MRI lesion in the cerebellum ([2]; listed as zanubrutinib): the mass shrank and disappeared
Response to monotherapy as lead-in therapy ([2]; two relapsed PCNSL cases, monotherapy before combination chemotherapy): rapid and dramatic response; also recorded: significant disease control within 14 d
CSF IL-10 concentration (IL-10): dramatically decreased
IC50 (TMD8): 400 pM
Protein binding rate ([3]; zanubrutinib, no reference given): 94%
Median time to maximum concentration [4]: 2 h
Median time to maximum concentration ([4]; listed as zanubrutinib): approximately 2 h
Patients who achieved remission (DLBCL [5]; among 75 patients with non-Hodgkin lymphoma (including 23 with DLBCL)): 14
ORR (DLBCL [5]; relapsed non-GCB DLBCL, phase 2, 41 patients, median follow-up 6.8 months): 29.3%
AEs leading to treatment discontinuation, patients (DLBCL [5]; [9]): four
Complete response rate (DLBCL [5]; [9]): 17.1%

Structure (SMILES): CC#CC(=O)N1CC[C@@H](n2c(=O)n(-c3ccc(Oc4ccccc4)cc3)c3c(N)ncnc32)C1 [Tirabrutinib]
Mean CSF (trough concentration) ([6]; 320mg qd): 2.19 ng/mL
Mean CSF (trough concentration) ([6]; 320mg qd, listed as tirabrutinib): 2.19 ± 0.476 ng/mL
Mean Plasma ([6]; 320mg qd): 16.3 ng/mL
Mean CSF (trough concentration) ([6]; 480mg qd): 14.0 ng/mL
Mean CSF (trough concentration) ([6]; 480mg qd, listed as tirabrutinib): 14.0 ± 8.92 ng/mL
Mean Plasma ([6]; 480mg qd): 77.0 ng/mL

Structure (SMILES): C=CC(=O)N1CCC[C@@H](n2nc(-c3ccc(Oc4ccccc4)cc3)c3c(N)ncnc32)C1 [Ibrutinib, ibrutinib]
Protein binding ([3]; ibrutinib): 97.3%
Patients with disease improvement after monotherapy (DLBCL [7]): 94%
Mean Plasma ([8]; 560mg qd): 53.7 ng/mL
Mean Plasma ([8]; 700mg qd): 217.4 ng/mL
Mean Plasma ([8]; 840mg qd): 875.6 ng/mL

Structure (SMILES): CN(Cc1cnc2nc(N)nc(N)c2n1)c1ccc(C(=O)N[C@@H](CCC(=O)O)C(=O)O)cc1 [high-dose MTX, methotrexate]
CNS relapsing rate (CNSL): > 10%
